Several values for one entry are separate records, joined by “and”; a condition that tells them apart may be missing. Equal entries are not always repeated. Toxic doses and inconclusive results are not listed. Cut-off read from the data, not from the text of the source: active = T/C of 150% or more; inactive = T/C below 125%.
Tested on: L1210 leukemia ip in BDF1 mice, survival T/C
Assay: NCI In Vivo Anticancer Drug Screen. Data for tumor model L1210 Leukemia (intraperitoneal) in B6D2F1 (BDF1) mice
Details: endpoint: mean survival time, higher = longer survival
Summary of the method: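 Antitumor effect is assessed in tumor-bearing animals. Survival in the compound arm is compared with a vehicle-dosed control arm and expressed as their quotient.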

[1] = dose: 50.0 mg/kg/injection, schedule: Q01DX009 (ip), vehicle: saline
[2] = dose: 100.0 mg/kg/injection, schedule: Q01DX009 (ip), vehicle: saline
[3] = dose: 200.0 mg/kg/injection, schedule: Q01DX009 (ip), vehicle: saline
[4] = dose: 400.0 mg/kg/injection, schedule: Q01DX009 (ip), vehicle: saline
[5] = dose: 100.0 mg/kg/injection, schedule: Q01DX009 (ip), vehicle: Klucel (hydroxypropylcellulose) (HPC)
[6] = dose: 200.0 mg/kg/injection, schedule: Q01DX009 (ip), vehicle: Klucel (hydroxypropylcellulose) (HPC)
[7] = dose: 400.0 mg/kg/injection, schedule: Q01DX009 (ip), vehicle: Klucel (hydroxypropylcellulose) (HPC)
[8] = dose: 100.0 mg/kg/injection, schedule: Q01DX009 (ip), vehicle: saline with Tween-80
[9] = dose: 100.0 mg/kg/injection, schedule: Q04DX003 (ip), vehicle: saline with Tween-80
[10] = dose: 200.0 mg/kg/injection, schedule: Q01DX009 (ip), vehicle: saline with Tween-80
[11] = dose: 200.0 mg/kg/injection, schedule: Q04DX003 (ip), vehicle: saline with Tween-80
[12] = dose: 400.0 mg/kg/injection, schedule: Q01DX009 (ip), vehicle: saline with Tween-80
[13] = dose: 400.0 mg/kg/injection, schedule: Q04DX003 (ip), vehicle: saline with Tween-80
[14] = dose: 75.0 mg/kg/injection, schedule: Q01DX001 (ip), vehicle: saline
[15] = dose: 150.0 mg/kg/injection, schedule: Q01DX001 (ip), vehicle: saline
[16] = dose: 300.0 mg/kg/injection, schedule: Q01DX001 (ip), vehicle: saline
[17] = dose: 50.0 mg/kg/injection, schedule: Q01DX001 (ip), vehicle: saline
[18] = dose: 100.0 mg/kg/injection, schedule: Q01DX001 (ip), vehicle: saline
[19] = dose: 200.0 mg/kg/injection, schedule: Q01DX001 (ip), vehicle: saline

Measured: T/C

CC1(C)N=C(N)N=C(N)N1c1ccc(CCC(=O)Nc2cccc(S(=O)(=O)F)c2)cc1
inactive: dose: 0.8 mg/kg/injection, schedule: Q01DX009 (ip), vehicle: saline 98 % of control | dose: 4.0 mg/kg/injection, schedule: Q01DX009 (ip), vehicle: saline 106 % of control | dose: 20.0 mg/kg/injection, schedule: Q01DX009 (ip), vehicle: saline 108 % of control | dose: 25.0 mg/kg/injection, schedule: Q#A X018 (ip), vehicle: saline 119 % of control | [1] 111 % of control | dose: 50.0 mg/kg/injection, schedule: Q#A X018 (ip), vehicle: saline 113 % of control | [2] 112 % of control and 122 % of control | dose: 100.0 mg/kg/injection, schedule: Q#A X018 (ip), vehicle: saline 88 % of control

CS(=O)(=O)N(CC(=O)O)Cc1ccccc1
inactive: [1] 101 % of control | dose: 50.0 mg/kg/injection, schedule: Q01DX009 (ip), vehicle: sodium bicarbonate 116 % of control | [2] 101 % of control | dose: 100.0 mg/kg/injection, schedule: Q01DX009 (ip), vehicle: sodium bicarbonate 106 % of control | dose: 100.0 mg/kg/injection, schedule: Q04DX003 (ip), vehicle: sodium bicarbonate 124 % of control | [3] 95 % of control | dose: 200.0 mg/kg/injection, schedule: Q01DX009 (ip), vehicle: sodium bicarbonate 101 % of control | dose: 200.0 mg/kg/injection, schedule: Q04DX003 (ip), vehicle: sodium bicarbonate 91 % of control | [4] 97 % of control | dose: 400.0 mg/kg/injection, schedule: Q01DX009 (ip), vehicle: sodium bicarbonate 104 % of control | dose: 400.0 mg/kg/injection, schedule: Q04DX003 (ip), vehicle: sodium bicarbonate 91 % of control

Cc1cc(N=O)c(NO)cc1C
inactive: [5] 108 % of control | [6] 103 % of control | [7] 118 % of control

C[N+](C)(Cc1ccccc1)CC(O)COc1ccccc1 (stereo not drawn)
inactive: dose: 12.5 mg/kg/injection, schedule: Q01DX001 (ip), vehicle: saline with Tween-80 108 % of control | dose: 12.5 mg/kg/injection, schedule: Q01DX009 (ip), vehicle: saline with Tween-80 100 % of control | dose: 12.5 mg/kg/injection, schedule: Q04DX003 (ip), vehicle: saline with Tween-80 92 % of control | dose: 25.0 mg/kg/injection, schedule: Q01DX001 (ip), vehicle: saline with Tween-80 100 % of control | dose: 25.0 mg/kg/injection, schedule: Q01DX009 (ip), vehicle: saline with Tween-80 94 % of control | dose: 25.0 mg/kg/injection, schedule: Q04DX003 (ip), vehicle: saline with Tween-80 94 % of control | dose: 50.0 mg/kg/injection, schedule: Q01DX001 (ip), vehicle: saline with Tween-80 100 % of control | dose: 50.0 mg/kg/injection, schedule: Q01DX009 (ip), vehicle: saline with Tween-80 102 % of control | dose: 50.0 mg/kg/injection, schedule: Q04DX003 (ip), vehicle: saline with Tween-80 103 % of control

CCCC(C(=O)O)c1ccccc1C (stereo not drawn)
inactive: [8] 102 % of control | [9] 102 % of control | [10] 98 % of control | [11] 97 % of control | [12] 105 % of control | [13] 107 % of control

CCN1C(/C=C/c2ccc(O)c3ncccc23)CCC2CC(C)CCC21 (stereo not drawn)
inactive: [14] 117 % of control | [15] 119 % of control | [16] 120 % of control

C[N+](C)(C)c1ncnc2c1ncn2C1CC(O)C(CO)O1 (stereo not drawn)
inactive: [17] 104 % of control | [18] 96 % of control | [19] 102 % of control

O/N=C\C[n+]1cc2ccccc2cc1/C=N\O
inactive: dose: 25.0 mg/kg/injection, schedule: Q01DX009 (ip), vehicle: saline 97 % of control | [1] 97 % of control | [2] 104 % of control | dose: 100.0 mg/kg/injection, schedule: Q04DX003 (ip), vehicle: saline 98 % of control

Cc1cc(C)c(SSc2c(C)cc(C)cc2C)c(C)c1
inactive: [17] 106 % of control | [18] 104 % of control | [19] 100 % of control

COC(=O)C1=CO[C@H](C)[C@@H]2CN3CCc4c([nH]c5ccccc45)[C@@H]3C[C@H]12
inactive: dose: 17.5 mg/kg/injection, schedule: Q01DX Z (ip), vehicle: carboxymethylcellulose (CMC) 98 % of control

CC1CN=C(c2ccc(O)c(O)c2O)S1 (stereo not drawn)
inactive: dose: 75.0 mg/kg/injection, schedule: Q04DX002 (ip), vehicle: saline with Tween-80 101 % of control | dose: 150.0 mg/kg/injection, schedule: Q04DX002 (ip), vehicle: saline with Tween-80 101 % of control | dose: 300.0 mg/kg/injection, schedule: Q04DX002 (ip), vehicle: saline with Tween-80 93 % of control

NC1=NC(=O)/C(=C/c2ccco2)S1
inactive: [14] 98 % of control | [15] 93 % of control | [16] 90 % of control

COc1ccc(NC(=O)c2c(Br)c(Br)c(Br)c(Br)c2C(=O)O)c(Cl)c1
inactive: [5] 96 % of control | [6] 93 % of control

O=C(NC(=S)Nc1cccc2ccc(O)cc12)c1ccc(Cl)cc1Cl
inactive: dose: 100.0 mg/kg/injection, schedule: Q01DX001 (ip), vehicle: saline with Tween-80 101 % of control | [8] 94 % of control and 106 % of control | dose: 100.0 mg/kg/injection, schedule: Q04DX002 (ip), vehicle: saline with Tween-80 103 % of control and 92 % of control | [9] 100 % of control | dose: 200.0 mg/kg/injection, schedule: Q01DX001 (ip), vehicle: saline with Tween-80 92 % of control | [10] 98 % of control and 101 % of control | dose: 200.0 mg/kg/injection, schedule: Q04DX002 (ip), vehicle: saline with Tween-80 95 % of control and 103 % of control | [11] 97 % of control | dose: 400.0 mg/kg/injection, schedule: Q01DX001 (ip), vehicle: saline with Tween-80 103 % of control | [12] 103 % of control and 108 % of control | dose: 400.0 mg/kg/injection, schedule: Q04DX002 (ip), vehicle: saline with Tween-80 97 % of control and 98 % of control | [13] 92 % of control

COC(=O)c1ccc[n+](CCc2ccc(OC)c(OC)c2)c1
inactive: [14] 111 % of control

O=[N+]([O-])c1cccc(S(=O)(=O)Nc2cccc(C(F)(F)F)c2)c1
inactive: [2] 96 % of control | [3] 104 % of control | [4] 96 % of control

CCC(=O)Nc1cccc(OC(=O)N(C)C)c1
inactive: [9] 100 % of control | [11] 98 % of control | [13] 100 % of control

CC1C(=O)CC(c2ccccc2)N(C)C1c1ccccc1 (stereo not drawn)
inactive: [14] 96 % of control | dose: 75.0 mg/kg/injection, schedule: Q04DX003 (ip), vehicle: acetone 93 % of control | [15] 91 % of control | dose: 150.0 mg/kg/injection, schedule: Q04DX003 (ip), vehicle: acetone 98 % of control | [16] 100 % of control | dose: 300.0 mg/kg/injection, schedule: Q04DX003 (ip), vehicle: acetone 96 % of control

O=C(O)c1cc(-c2ccccc2Cl)nc2ccccc12
inactive: [18] 96 % of control | [19] 94 % of control | dose: 400.0 mg/kg/injection, schedule: Q01DX001 (ip), vehicle: saline 97 % of control

O=C1CCCCCC2CC12 (stereo not drawn)
inactive: dose: 100.0 mg/kg/injection, schedule: Q04DX002 (sc), vehicle: olive oil, sesame oil, peanut oil 105 % of control | dose: 200.0 mg/kg/injection, schedule: Q04DX002 (sc), vehicle: olive oil, sesame oil, peanut oil 112 % of control | dose: 400.0 mg/kg/injection, schedule: Q04DX002 (sc), vehicle: olive oil, sesame oil, peanut oil 109 % of control

CCCCCC(Oc1ccc(Cl)cc1Cl)C(=O)O (stereo not drawn)
inactive: dose: 100.0 mg/kg/injection, schedule: Q04DX002 (ip), vehicle: Klucel (hydroxypropylcellulose) (HPC) 100 % of control | dose: 200.0 mg/kg/injection, schedule: Q04DX002 (ip), vehicle: Klucel (hydroxypropylcellulose) (HPC) 97 % of control

c1ccc2c(c1)C(=NN=C1c3ccccc3-c3ccccc31)c1ccccc1-2
inactive: dose: 100.0 mg/kg/injection, schedule: Q01DX001 (ip), vehicle: carboxymethylcellulose (CMC) 97 % of control | [5] 93 % of control | dose: 200.0 mg/kg/injection, schedule: Q01DX001 (ip), vehicle: carboxymethylcellulose (CMC) 94 % of control | [6] 104 % of control | dose: 400.0 mg/kg/injection, schedule: Q01DX001 (ip), vehicle: carboxymethylcellulose (CMC) 94 % of control | [7] 96 % of control
